Assay results from ChEMBL document CHEMBL4665787, “Bifunctional and Unusual Amino Acid β- or γ-Ester Prodrugs of Nucleoside Analogues for Improved Affinity to ATB and Enhanced Metabolic Stability: An Application to Floxuridine” (J Med Chem, 2020).
Activity calls are given as the source filed them. The rule behind the calls is not given here.

Key:
ZR-75-1 [1] = assay: Potency index, ratio of FUdR GI50 to test compound GI50 for growth inhibition of human ZR-75-1 cells; type: functional
[2] = Toxicity in NOD SCID nude mouse xenografted with human ZR-75-1 cells assessed as body weight at 90 mg/kg, iv for 20 days (reference value: 29.2 +/- 2.5g); type: organism-based; conditions: in vivo, 480 h, time 20 day
[3] = AUC (0 to t) in NOD SCID nude mouse plasma xenografted with ZR-75-1 cells assessed as fluorouracil AUC at 90 mg/kg, iv measured up to 24 hrs by HPLC-MS/MS analysis; type: ADME, organism-based; set-up: route intravenous, dose 90 mg/kg, time <=24; conditions: in vivo
[4] = Half life of compound in human MIA PaCa-2 cell homogenate; type: ADME, tissue-based
thymidine phosphorylase = assay: Half life of compound in thymidine phosphorylase buffer at 300 uM by HPLC analysis; type: physicochemical
[5] = AUC (0 to t) in NOD SCID nude mouse plasma xenografted with ZR-75-1 cells assessed as floxuridine; 5-fluoro-2-deoxyuridine AUC at 90 mg/kg, iv measured up to 24 hrs by HPLC-MS/MS analysis; type: ADME, organism-based; set-up: route intravenous, dose 90 mg/kg, time <=24; conditions: in vivo
[6] = Selectivity ratio of substrate activity at PEPT1 (unknown origin) expressed in MDCK cells assessed as PEPT1 mediated drug uptake to drug uptake in MDCK cells
[7] = Cmax in NOD SCID nude mouse plasma xenografted with ZR-75-1 cells assessed as fluorouracil at 90 mg/kg, iv measured up to 24 hrs by HPLC-MS/MS analysis; type: ADME, organism-based; set-up: route intravenous, dose 90 mg/kg, time <=24; conditions: in vivo
[8] = Half life in rat plasma at 200 uM measured up to 120 mins by HPLC-MS/MS analysis; type: ADME, cell-free
MDA-MB-231 [9] = assay: Potency index, ratio of FUdR GI50 to test compound GI50 for growth inhibition of human MDA-MB-231 cells; type: functional
[10] = Drug uptake in Xenopus laevis oocytes at 0.5 mM incubated for 10 mins by HPLC analysis; type: ADME, cell-based; conditions: oocyte, 500 µM
[11] = AUC (0 to t) in NOD SCID nude mouse tumour xenografted with ZR-75-1 cells assessed as floxuridine; 5-fluoro-2-deoxyuridine AUC at 90 mg/kg, iv measured up to 24 hrs by HPLC-MS/MS analysis; type: ADME, organism-based, Neoplasm; conditions: in vivo
[12] = biological target: T1, Sodium- and chloride-dependent neutral and basic amino acid transporter B(0+) (Homo sapiens) (UniProt Q9UN76); assay: Substrate activity at SLC6A14 (unknown origin) expressed in Xenopus laevis oocytes assessed as increase in ABT0+ mediated drug uptake at 1 mM in presence of Cl- ion by HPLC analysis; type: cell-based; conditions: Oocyte
T1 sequence (whole entry): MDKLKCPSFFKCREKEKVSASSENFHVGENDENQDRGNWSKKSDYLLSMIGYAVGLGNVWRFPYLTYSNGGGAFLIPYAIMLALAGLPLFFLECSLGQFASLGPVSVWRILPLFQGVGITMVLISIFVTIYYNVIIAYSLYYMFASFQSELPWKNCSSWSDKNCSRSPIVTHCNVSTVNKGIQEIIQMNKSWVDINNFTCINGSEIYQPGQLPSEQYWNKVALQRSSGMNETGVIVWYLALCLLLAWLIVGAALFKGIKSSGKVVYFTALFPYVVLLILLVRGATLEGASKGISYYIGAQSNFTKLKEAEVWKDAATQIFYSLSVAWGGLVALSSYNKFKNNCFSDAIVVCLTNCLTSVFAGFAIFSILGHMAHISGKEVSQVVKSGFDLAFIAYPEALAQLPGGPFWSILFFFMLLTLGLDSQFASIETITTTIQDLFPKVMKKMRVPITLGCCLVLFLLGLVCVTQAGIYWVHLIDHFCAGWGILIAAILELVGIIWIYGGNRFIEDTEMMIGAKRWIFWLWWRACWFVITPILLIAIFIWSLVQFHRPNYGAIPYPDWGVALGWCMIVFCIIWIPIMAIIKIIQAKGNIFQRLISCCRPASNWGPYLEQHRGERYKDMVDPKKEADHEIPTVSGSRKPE

[13] = Toxicity in NOD SCID nude mouse xenografted with human MDA-MB-231 cells assessed as body weight at 90 mg/kg, iv for 20 days (reference value: 30.1 +/- 4.1g); type: organism-based; conditions: in vivo, 480 h, time 20 day
MDA-MB-231 [14] = assay: Antitumour activity against human MDA-MB-231 cells xenografted in NOD SCID nude mouse assessed as tumour inhibition at 90 mg/kg, iv administered for 20 days measured every 2 day by caliper method relative to control; type: functional; conditions: MDA-MB-231, iv, 480 h, time 20 day
[15] = biological target: T2, Solute carrier family 15 member 1 (Homo sapiens, UniProt P46059); assay: Substrate activity at PEPT1 (unknown origin) expressed in MDCK cells assessed as PEPT1 mediated drug uptake at 0.5 mM incubated for 10 mins by HPLC analysis; type: ADME, cell-based; conditions: 500 µM
T2 sequence (P46059 whole entry): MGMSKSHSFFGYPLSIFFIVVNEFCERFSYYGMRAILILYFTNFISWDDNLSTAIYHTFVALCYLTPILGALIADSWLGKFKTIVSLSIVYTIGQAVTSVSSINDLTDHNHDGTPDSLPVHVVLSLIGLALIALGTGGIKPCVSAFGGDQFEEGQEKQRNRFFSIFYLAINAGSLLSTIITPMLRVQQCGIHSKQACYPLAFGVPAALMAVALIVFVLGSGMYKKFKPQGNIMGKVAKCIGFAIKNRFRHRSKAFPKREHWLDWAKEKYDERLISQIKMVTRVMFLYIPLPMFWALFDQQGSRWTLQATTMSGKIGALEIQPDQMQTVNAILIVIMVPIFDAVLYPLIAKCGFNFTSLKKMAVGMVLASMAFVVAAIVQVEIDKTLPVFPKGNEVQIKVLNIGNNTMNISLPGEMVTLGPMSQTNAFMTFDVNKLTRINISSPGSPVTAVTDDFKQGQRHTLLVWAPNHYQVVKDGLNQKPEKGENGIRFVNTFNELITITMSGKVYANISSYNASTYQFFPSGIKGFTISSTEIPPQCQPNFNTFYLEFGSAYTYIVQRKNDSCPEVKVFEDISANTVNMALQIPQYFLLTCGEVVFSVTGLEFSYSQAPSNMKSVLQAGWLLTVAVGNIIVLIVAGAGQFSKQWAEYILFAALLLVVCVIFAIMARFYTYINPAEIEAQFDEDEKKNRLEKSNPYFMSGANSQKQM

ZR-75-1 [16] = assay: Antitumour activity against human ZR-75-1 cells xenografted in NOD SCID nude mouse assessed as tumour inhibition at 90 mg/kg, iv administered for 20 days measured every 2 day by caliper method relative to control; type: functional; conditions: ZR-75-1, iv, 480 h, time 20 day
[17] = AUC (0 to t) in NOD SCID nude mouse plasma xenografted with ZR-75-1 cells at 90 mg/kg, iv measured up to 24 hrs by HPLC-MS/MS analysis; type: ADME, organism-based; set-up: route intravenous, dose 90 mg/kg, time <=24
[18] = Selectivity ratio of substrate activity at SLC6A14 (unknown origin) expressed in Xenopus laevis oocytes assessed as ABT0+ mediated drug uptake to drug uptake in Xenopus laevis oocytes; set-up: species or system Oocyte
[19] = Drug uptake in MDCK cells incubated for 10 mins by HPLC analysis; type: ADME, cell-based, Canis lupus familiaris; conditions: dog, 500 µM, dose 0.5 mM

SMILES: N[C@@H](CC(=O)OC[C@H]1O[C@@H](n2cc(F)c(=O)[nH]c2=O)C[C@@H]1O)C(=O)O
- RatioGI50 (ZR-75-1 [1]): 7
- Activity [2]: 26.8 g
- AUCt [3]: 588.2 ng·h/mL
- half-life [4]: 0.273 h
- half-life at 300 µM (thymidine phosphorylase): 4.98 h
- AUC [5]: 1172.9 ng·h/mL
- Ratio [6]: 1
- Cmax [7]: 67.8 ng/mL
- half-life at 200 µM [8]: 2.49 h
- RatioGI50 (MDA-MB-231 [9]): 7
- Drug uptake [10]: 0.32 nmol/mg/min
- AUCt [11]: 4600.1 ng·h/g
- Activity [12]: Active
- Activity [13]: 27.6 g
- inhibition in vivo at 90 mg/kg (MDA-MB-231 [14]): 33.8%
- Drug uptake [15]: < 0.04 nmol/mg/min
- inhibition in vivo at 90 mg/kg (ZR-75-1 [16]): 58.6%
- AUC(0-t) at 24 h [17]: 5070 ng·h/mL
- Ratio [18]: 9.28
- Drug uptake [19]: < 0.04 nmol/mg/min
